Test results from patent publication US20230382904A1, “SUBSTITUTED 4-([1,2,4]TRIAZOLO[1,5-a]PYRIDIN-6-YL)THIOPHENE-2-CARBOXAMIDE DERIVATIVES AND USE THEREOF” (The Johns Hopkins University, priority 2020, published 2023).

Tests used:
LZK = LZK (Homo sapiens (Human), UniProt O43283); experiment: LZK biochemical assay (TR-FRET, MKK7 phosphorylation)
Method: LZK assay is a biochemical assay format designed to screen for inhibitors of LZK. Enzymatic activity of LZK was measured by monitoring phosphorylation of the physiological substrate MKK7 (MAP2K7, Dual specificity mitogen-activated protein kinase kinase 7). Phosphorylation was detected by a TR-FRET system whereby His-tagged MKK7 was labeled by a XL665-labeled anti-His antibody (FRET acceptor, emission 665 nm). LZK phosphorylates MKK7 at T275/S277 which were detected by an Eu-labeled anti-phospho-MKK7 (T275/S277) antibody (FRET donor, excitation 340 nm). Phosphorylation of MKK7 results in an increased TR-FRET signal (Ratio XL665-channel/Eu-channel) and inhibition of enzymatic activity of LZK decreases the TR-FRET signal.
Assay Protocol for 384 low volume MTP format: 1 μl of test compound was pipetted into test plate; +5 μl LZK solution (10 nM LZK, catalytic domain, Carna Biosiences in assay buffer); +5 μl substrate solution (15 nM MKK7, LDB; 15 μM ATP, in assay buffer); 90 min incubation at RT; +5 μl detection mix (20 nM XL665-labeled anti-His antibody, Cisbio; 0.4 nM Eu-labeled anti-phospho-MKK7 (T275/S277), Cisbio/Millipore in detection buffer), 16 h incubation at 32° C.; endpoint measurement BMG (HTRF).
(§1) All indicated concentrations final concentrations.
Assay buffer (384 format): 50 mM Hepes pH 7.5, 10 mM MgCl2, 1 mM EGTA, 1 mM DTT, 0.01% Triton X-100, 0.01% BSA, 1:500 Smart Block.
(§2) Detection buffer: 25 mM Tris/HCl pH 7.5, 100 mM EDTA, 100 mM NaCl, 200 mM KF, 0.01% Tween 20, 1:500 Smart Block.

DLK = DLK (Homo sapiens (Human), UniProt Q12852); experiment: DLK biochemical assay (TR-FRET, MKK7 phosphorylation)
Method: DLK assay is a biochemical assay format designed to screen for inhibitors of DLK. Enzymatic activity of DLK was measured by monitoring phosphorylation of the physiological substrate MKK7 (MAP2K7, Dual specificity mitogen-activated protein kinase kinase 7). Phosphorylation was detected by a TR-FRET system whereby His-tagged MKK7 was labeled by a XL665-labeled anti-His antibody (FRET acceptor, emission 665 nm). DLK phosphorylates MKK7 at T275/S277, which was detected by an Eu-labeled anti-phospho-MKK7 (T275/S277) antibody (F RET donor, excitation 340 nm). Phosphorylation of MKK7 results in an increased TR-FRET signal (Ratio XL665-channel/Eu-channel) and inhibition of enzymatic activity of DLK decreases the TR-FRET signal.
Assay Protocol for 1536 MTP format: test compounds were predispensed (60 nl) in test plates; +3 μl DLK solution (10 nM DLK, catalytic domain, Carna Biosiences, 0.6 mM DTT in assay buffer); +2 μl substrate solution (15 nM MKK7, LDB; 60 μM ATP; 0.4 mM DTT in assay buffer); 90 min incubation at RT; +2 μl detection mix (5 nM XL665-labeled anti-His antibody, Cisbio; 0.1 nM Eu-labeled anti-phospho-MKK7 (T275/S277), Cisbio/Millipore in detection buffer); 16 h incubation at 37° C.; endpoint measurement BMG (HTRF).
Assay Protocol for 384 low volume MTP format: 1 μl of test compounds were pipetted into test plate; +5 μl DLK solution (10 nM DLK, catalytic domain, Carna Biosiences in assay buffer); +5 μl substrate solution (15 nM MKK7, LDB; 60 μM ATP, in assay buffer); 90 min incubation at RT; +9 μl detection mix (20 nM XL665-labeled anti-His antibody, Cisbio; 0.4 nM Eu-labeled anti-phospho-MKK7 (T275/S277), Cisbio/Millipore in detection buffer); 16 h incubation at 4° C.; endpoint measurement BMG (HTRF).
as §1
Assay buffer (384 format): 50 mM Hepes pH 7.5, 10 mM MgCl2, 1 mM EGTA, 1 mM DTT, 0,01% Triton X-100, 0.01% BSA, 1:500 Smart Block.
as §2

DLK, sequence (Q12852 1-520): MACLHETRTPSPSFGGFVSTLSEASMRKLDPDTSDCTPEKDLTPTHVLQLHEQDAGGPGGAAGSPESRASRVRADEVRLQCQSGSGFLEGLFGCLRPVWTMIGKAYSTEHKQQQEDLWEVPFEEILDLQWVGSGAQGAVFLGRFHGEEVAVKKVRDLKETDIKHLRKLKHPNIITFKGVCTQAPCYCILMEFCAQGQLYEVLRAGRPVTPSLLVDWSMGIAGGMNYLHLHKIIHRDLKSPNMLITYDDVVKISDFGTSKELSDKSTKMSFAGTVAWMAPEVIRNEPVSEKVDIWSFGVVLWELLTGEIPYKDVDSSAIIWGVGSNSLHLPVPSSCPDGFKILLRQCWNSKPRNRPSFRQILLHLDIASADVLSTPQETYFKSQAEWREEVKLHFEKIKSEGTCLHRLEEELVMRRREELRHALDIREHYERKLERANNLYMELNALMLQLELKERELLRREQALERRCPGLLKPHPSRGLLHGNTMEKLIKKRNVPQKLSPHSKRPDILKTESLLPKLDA
LZK, sequence (O43283 168-409): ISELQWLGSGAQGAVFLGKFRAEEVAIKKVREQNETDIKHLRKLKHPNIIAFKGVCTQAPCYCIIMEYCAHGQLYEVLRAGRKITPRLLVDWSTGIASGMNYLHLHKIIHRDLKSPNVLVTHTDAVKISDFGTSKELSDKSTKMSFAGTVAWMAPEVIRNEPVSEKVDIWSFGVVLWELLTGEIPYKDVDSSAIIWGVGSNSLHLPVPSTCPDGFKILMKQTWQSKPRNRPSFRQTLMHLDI

Compound | IC50 (LZK) | IC50 (DLK)
C[C@H](NC(=O)c1cc(-c2cc(C(=O)NC3CNC(=O)C3)c3nc(N)nn3c2)cs1)c1ccc(F)cc1 (mixture of isomers) [Compound 28] | 110 nM | 3.4 nM
C[C@H](NC(=O)c1cc(-c2cc(C(=O)NC3CNC(=O)C3)c3nc(N)nn3c2)cs1)c1ccccc1 (mixture of isomers) [Compound 29] | 60 nM | 2.8 nM
C[C@H](NC(=O)c1cc(-c2cc(C(=O)NC3CCNC3)c3nc(N)nn3c2)cs1)c1ccc(F)cc1 (mixture of isomers) [Compound 33] | 360 nM | 12 nM
C[C@H](NC(=O)c1cc(-c2cc(C(=O)NC3CCNC3)c3nc(N)nn3c2)cs1)c1ccccc1 (mixture of isomers) [Compound 34] | 880 nM | 55 nM
CC(NC(=O)c1cc(-c2csc(C(=O)N[C@@H](C)c3ccccc3)c2)cn2nc(N)nc12)C(F)(F)F (mixture of isomers) [Compound 43] | 130 nM | 22 nM
CC(NC(=O)c1cc(-c2csc(C(=O)N[C@@H](C)c3ccc(F)cc3)c2)cn2nc(N)nc12)C(F)(F)F (mixture of isomers) [Compound 51] | 240 nM | 28.5 nM
C[C@H](NC(=O)c1cc(-c2cc(C(=O)NC3CNC(=O)C3)c3nc(N)nn3c2)cs1)c1ccc(F)cc1 (single isomer, unassigned) [Compound 47] | 3600 nM | 130 nM
C[C@H](NC(=O)c1cc(-c2cc(C(=O)NC3CNC(=O)C3)c3nc(N)nn3c2)cs1)c1ccc(F)cc1 (single isomer, unassigned) [Compound 48] | 77 nM | 2.4 nM
C[C@H](NC(=O)c1cc(-c2cc(C(=O)NC3CCNC3)c3nc(N)nn3c2)cs1)c1ccc(F)cc1 (single isomer, unassigned) [Compound 49] | 1100 nM | 94 nM
C[C@H](NC(=O)c1cc(-c2cc(C(=O)NC3CCNC3)c3nc(N)nn3c2)cs1)c1ccccc1 (single isomer, unassigned) [Compound 50] | 730 nM | 42 nM
C[C@H](NC(=O)c1cc(-c2cc(C(=O)NC3CNC(=O)C3)c3nc(N)nn3c2)cs1)c1ccccc1 (single isomer, unassigned) [Compound 54] | 30 nM | 2.3 nM
C[C@H](NC(=O)c1cc(-c2cc(C(=O)NC3CNC(=O)C3)c3nc(N)nn3c2)cs1)c1ccccc1 (single isomer, unassigned) [Compound 55] | 6500 nM | 88 nM
C[C@H](NC(=O)c1cc(-c2cc(C(=O)NC3CCNC3)c3nc(N)nn3c2)cs1)c1ccccc1 (single isomer, unassigned) [Compound 57] | 2100 nM | 92 nM
C[C@H](NC(=O)c1cc(-c2cc(C(=O)NC3CCNC3)c3nc(N)nn3c2)cs1)c1ccc(F)cc1 (single isomer, unassigned) [Compound 66] | 3500 nM | 88 nM
CC(NC(=O)c1cc(-c2csc(C(=O)N[C@@H](C)c3ccccc3)c2)cn2nc(N)nc12)C(F)(F)F (single isomer, unassigned) [Compound 71] | 55 nM | 4.85 nM
COc1cccc(CNC(=O)c2cc(-c3cc(C(=O)NC(C)C)c4nc(N)nn4c3)cs2)c1 [Compound 3] | – | 34 nM
CC(C)NC(=O)c1cc(-c2csc(C(=O)NCc3ccc(F)cc3)c2)cn2nc(N)nc12 [Compound 4, 2-Amino-6-(5-{[(4-fluorophenyl)methyl]carbamoyl}thiophen-3-yl)-N-(propan-2-yl)[1,2,4]triazolo[1,5-a]pyridine-8-carboxamide] | – | 35 nM
CC(C)NC(=O)c1cc(-c2csc(C(=O)N[C@@H](C)c3ccc(F)cc3)c2)cn2nc(N)nc12 [Compound 19, 2-Amino-6-(5-{[(1S)-1-(4-fluorophenyl)ethyl]carbamoyl}thiophen-3-yl)-N-(propan-2-yl)[1,2,4]triazolo[1,5-a]pyridine-8-carboxamide] | – | 8.65 nM
C[C@H](NC(=O)c1cc(-c2cc(C(=O)NC3COC3)c3nc(N)nn3c2)cs1)c1ccc(F)cc1 [Compound 73] | – | 160 nM
C[C@H](NC(=O)c1cc(-c2cc(C(=O)NC(C)(C)CO)c3nc(N)nn3c2)cs1)c1ccc(F)cc1 [Compound 78] | – | 6.45 nM
CC(C)NC(=O)c1cc(-c2csc(C(=O)N[C@H](C)c3ccc(F)cc3)c2)cn2nc(N)nc12 [Compound 96] | – | 14 nM
Nc1nc2c(C(=O)N[C@H]3CCOC3)cc(-c3csc(C(=O)NCc4ccc(F)cc4)c3)cn2n1 [Compound 101] | – | 18 nM
Nc1nc2ccc(-c3csc(C(=O)N4CC5(COC5)C4)c3)cn2n1 [Compound 163] | – | 12000 nM
COC(C)CN(C)C(=O)c1cc(-c2ccc3nc(N)nn3c2)cs1 (centres unmarked) [Compound 164] | – | 28000 nM

Compound | IC50 (LZK) | IC50 (DLK)
CN(Cc1ccc(F)cc1)C(=O)c1cc(-c2ccc3nc(N)nn3c2)cs1 [Compound 166] | – | 5200 nM
CC1CCCN(C(=O)c2cc(-c3ccc4nc(N)nn4c3)cs2)C1 (centres unmarked) [Compound 167] | – | 10000 nM
CC[C@H]1CC[C@H](NC(=O)c2cc(-c3ccc4nc(N)nn4c3)cs2)CC1 [Compound 178] | – | 3500 nM
CC(C)(C)OC(=O)N1CCCC(NC(=O)c2cc(-c3ccc4nc(N)nn4c3)cs2)C1 (centres unmarked) [Compound 179] | – | 3400 nM
NC(=O)c1cc(-c2ccc3nc(N)nn3c2)cs1 [Compound 183] | – | 4300 nM
Nc1nc2ccc(-c3csc(C(=O)NC4CCOC4)c3)cn2n1 (centres unmarked) [Compound 186] | – | 7600 nM
Nc1nc2ccc(-c3csc(C(=O)NCC4CCCO4)c3)cn2n1 (centres unmarked) [Compound 189] | – | 4700 nM
Nc1nc2ccc(-c3csc(C(=O)NCC4CCCCO4)c3)cn2n1 (centres unmarked) [Compound 208] | – | 3000 nM
Nc1nc2ccc(-c3csc(C(=O)NCC4CCOC4)c3)cn2n1 (centres unmarked) [Compound 210] | – | 2700 nM
Cc1nc(CNC(=O)c2cc(-c3ccc4nc(N)nn4c3)cs2)cs1 [Compound 217] | – | 8600 nM
CCn1cc(CNC(=O)c2cc(-c3ccc4nc(N)nn4c3)cs2)cn1 [Compound 218] | – | 8700 nM
CN1CCC(CNC(=O)c2cc(-c3ccc4nc(N)nn4c3)cs2)CC1 [Compound 229] | – | 7600 nM
COc1ccc2c(c1)CN(C(=O)c1cc(-c3ccc4nc(N)nn4c3)cs1)C2 [Compound 237] | – | 12000 nM
Cn1cc(CNC(=O)c2cc(-c3ccc4nc(N)nn4c3)cs2)cn1 [Compound 244] | – | 4100 nM
Cn1cncc1CNC(=O)c1cc(-c2ccc3nc(N)nn3c2)cs1 [Compound 252] | – | 3900 nM
CCCNc1nc2ccc(-c3csc(C(=O)NCc4cccc(OC)c4)c3)cn2n1 [Compound 253] | – | > 30000 nM
COc1cc(OC)nc(CNC(=O)c2cc(-c3ccc4nc(N)nn4c3)cs2)n1 [Compound 258] | – | 7000 nM
Nc1nc2ccc(-c3csc(C(=O)Nc4ccccc4)c3)cn2n1 [Compound 259] | – | 2900 nM
COc1cccc(CNC(=O)c2cc(-c3ccc4nc(NCCN5CCOCC5)nn4c3)cs2)c1 [Compound 262] | – | > 30000 nM
CCN(CC)CCNc1nc2ccc(-c3csc(C(=O)NCc4cccc(OC)c4)c3)cn2n1 [Compound 266] | – | > 30000 nM
COc1cccc(CNC(=O)c2cc(-c3cc(C(=O)NC(C)C)c4ncnn4c3)cs2)c1 [Compound 390] | – | 11000 nM
CC(C)NC(=O)c1cc(-c2csc(C(=O)N[C@@H](C)c3ccc(F)cc3)c2)cn2ncnc12 [Compound 391] | – | 2000 nM
CC(C)c1nnc(-c2cc(-c3csc(C(=O)NCc4ccc(F)cc4)c3)cn3nc(N)nc23)s1 [Compound 393] | – | 260 nM
